Experiment: logP determination by HPLC on a reversed-phase column (C 18), EEC Directive 79/831 Annex V.A8
Type: physicochemical
Conditions: method marked [a] in Table 1
Method: The stated logP values were determined in accordance with EEC Directive 79/831 Annex V.A8 by HPLC (high performance liquid chromatography) on a reversed-phase column (C 18). Temperature: 43° C.

Row | logP | SMILES
1 | 3.23^[a] | CCC(=NOCC(C)CON=C(CC)c1cc(C)cc(C)n1)c1cc(C)cc(C)n1 (mixture of isomers) [Compound 572]
2 | 4.53^[a] | Cc1cccc(C(=NOCC2(CON=C(c3cccc(C)n3)C3CC3)CC(c3ccc(Cl)cc3)=NO2)C2CC2)n1 (stereo not shown) [compound 649]
3 | 2.67^[a] | CC(=NOC/C=C/CON=C(C)c1ccc(C)c(C)n1)c1ccc(C)c(C)n1 [compound 684]

Same assay, conditions: method marked [b] in Table 1

Row | logP | SMILES
4 | 5.21^[b] | CCC(=NOCC1(CON=C(CC)c2cccc(C)n2)CC(C(C)(C)C)=NO1)c1cccc(C)n1 (stereo not shown) [compound 610]
5 | 3.09^[b] | Cc1nc(/C(N)=N/OCc2cccc(CO/N=C(\N)c3nc(C)c4c(n3)CCCC4)c2)nc2c1CCCC2 [compound 712]
6 | 4.68^[b] (isomer B) | CCCC(=NOCC(C)CON=C(C)c1cccc(C)n1)c1ncccc1C (single isomer, unassigned) [compound 549]
7 | 4.01^[b] | C=C(CON=C(Cl)c1cccc(C)n1)CON=C(Cl)c1cccc(C)n1 [compound 696]
8 | 3.72^[b] | CC(=NOCc1cccc(CON=C(C)c2ccccn2)c1)c1ccccn1 [compound 731]
9 | 4.90^[b] | CC(=NOC(C)C(C)C(C)ON=C(C)c1cccc(C)n1)c1cccc(C)n1 (mixture of isomers) [Compound 743]
10 | 3.09^[b] | Cc1nc(/C(N)=N/OCc2ccc(CO/N=C(\N)c3nc(C)c4c(n3)CCCC4)cc2)nc2c1CCCC2 [compound 717]
11 | 3.62^[b] | CC(=NOCC(CON=C(C)c1nc(C)ccc1C)c1ccccc1)c1nc(C)ccc1C (single isomer, unassigned) [compound 755]
12 | 4.51^[b] | CC(=NOCC(CON=C(C)c1nc(C)ccc1C)C(C)C)c1nc(C)ccc1C (single isomer, unassigned) [Compound 753]
13 | 3.85^[b] | N/C(=N\OCc1ccccc1CO/N=C(\N)c1nc(C2CC2)cc(C2CC2)n1)c1nc(C2CC2)cc(C2CC2)n1 [compound 711]
14 | 5.71^[b] | CC(=NOCc1cccc(CON=C(C)c2nc(C)c(C)s2)c1)c1nc(C)c(C)s1 [compound 732]
15 | 2.23^[b] | Cc1cc(C)nc(/C(N)=N/OCc2ccccc2CO/N=C(\N)c2nc(C)cc(C)n2)n1 [compound 700]
16 | 4.86^[b] v(isomer B) | CC(=NOCCCCCCON=C(C)c1nc(C)c(C)s1)c1cccc(C)n1 (single isomer, unassigned) [compound 539]
17 | 2.49^[b] | CC(=NOCc1cccc(CON=C(C)c2cccc(C)n2)n1)c1cccc(C)n1 [Compound 740]
18 | 6.47^[b] | CC(=NOCC(C)(C)CON=C(CC(C)C)c1cccc(C)n1)c1cccc(C)n1 [Compound 538]

Same assay, conditions: method marked [c] in Table 1

Row | logP | SMILES
19 | 5.45^[c] | CC(=NOCC(CON=C(C)c1nc(C)ccc1C)c1ccccc1)c1nc(C)ccc1C (single isomer, unassigned) [compound 755]
20 | 5.95^[c] | CC(=NOCC(CON=C(C)c1nc(C)ccc1C)C(C)C)c1nc(C)ccc1C (single isomer, unassigned) [Compound 753]
21 | 7.36^[c] | CCCc1nc(C(C)=NOCC(C)CON=C(C)c2ccc(C)c(CCC)n2)ccc1C (stereo not shown) [Compound 550]
22 | 4.33^[c] | CC(=NOCc1cccc(CON=C(C)c2cccc(C)n2)n1)c1cccc(C)n1 [Compound 740]

Same assay, conditions: method marker [a] (footnote not shown); isomer A / isomer B / isomer mixture as noted in the cell

Row | logP | SMILES
23 | 4.28^[a] | Cc1cccnc1C(=NOCC(C)CON=C(c1ncccc1C)C(C)C)C(C)C (mixture of isomers) [compound 103]
24 | 2.99^[a] | CC(=NOCC(C)CON=C(C)c1ccc(C)c(C)n1)c1ccc(C)c(C)n1 (stereo not shown) [Compound 118]
25 | 4.22^[a] | CC(=NOCCCON=C(C)c1nc(C)cs1)c1nc(C)cs1 [compound 87]
26 | 5.16^[a] | C=C(CON=C(CC)c1cccc(C)n1)CON=C(CC)c1cccc(C)n1 [Compound 239]

Same assay, conditions: method marker [b]; isomer A / isomer B / isomer mixture as noted in the cell

Row | logP | SMILES
27 | 4.40^[b] (isomer A) | C=C(CON=C(C)c1cccc(C)n1)CON=C(CC(C)C)c1ncccc1C (single isomer, unassigned) [compound 155]
28 | 3.34^[b] | C=C(CON=C(C)c1cccc(C)n1)CON=C(C)c1cccnc1Cl [compound 147]
29 | 5.70^[b] | C=C(CON=C(C)c1cccc(C)n1)CON=C(C)c1cc(C(F)(F)F)cc(C)n1 [compound 211]
30 | 4.23^[b] | C=C(CON=C(C)c1cccc(C)n1)CON=C(C)c1cccs1 [compound 196]
31 | 2.84^[b] | C=C(CO/N=C(\N)c1nc(C)c(Cl)c(C)n1)CO/N=C(\N)c1nc(C)c(Cl)c(C)n1 [compound 46]
32 | 3.03^[b] (isomer A) | C=C(CON=C(C)c1cccc(C)n1)CON=C(C)c1ncccc1C (single isomer, unassigned) [Compound 203]
33 | 2.23^[b] | C=C(CON=C(C)c1cccc(C)n1)CON=C(N)c1ccc(C)n1C [compound 199]
34 | 4.82^[b] (isomer A) | C=C(CON=C(C)c1cccc(C)n1)CON=C(C)c1ccc(Cl)s1 (single isomer, unassigned) [compound 195]
35 | 6.51^[b] | C=C(CON=C(C)c1ccc2ccccc2n1)CON=C(C)c1ccc2ccccc2n1 [compound 63]
36 | 3.33^[b] | C=C(CO/N=C(\N)c1nc(C2CC2)cc(C2CC2)n1)CO/N=C(\N)c1nc(C2CC2)cc(C2CC2)n1 [compound 47]
37 | 4.41^[b] | C=C(CON=C(C)c1cccc(C)n1)CON=C(C)c1nc(C)c(C)s1 [Compound 18]
38 | 2.58^[b] | Cc1nc(/C(N)=N/OCCCCO/N=C(\N)c2nc(C)c3c(n2)CCCC3)nc2c1CCCC2 [compound 36]
39 | 5.03^[b] | CC(=NOCCCON=C(C)c1nc(C)c(C)s1)c1nc(C)c(C)s1 [compound 51]

Same assay, conditions: reversed-phase HPLC column (C 18); HCO2H; HPLC reversed-phase column (C 18), 43° C.; read-out: logP (HCO2H)

Row | chromatographic logP | SMILES
40 | 2.87 | CC(CON1C(=O)c2ccccc2C1=O)CON1C(=O)c2ccccc2C1=O [IX-1, 2,2′-[(2-methylpropane-1,3-diyl)bis(oxy)]bis(1H-isoindole-1,3(2H)-dione)]

Same assay, conditions: value marked [a]

Row | logP | SMILES
41 | 4.96^[a] | CC(=NOCC(C)(C)CON=C(C)c1ccc(C)c(C)n1)c1cccc(C)n1 [Compound 799]
42 | 6.76^[a] | COCC#Cc1cc(C)nc(C(C)=NOCC(C)CON=C(C)c2cc(C#CCOC)cc(C)n2)c1 (stereo not shown) [compound 874]
43 | 3.99^[a] | CC(=NOCC(C)(C)CON=C(C)c1csc(C)n1)c1csc(C)n1 [compound 518]
44 | 6.65^[a] | C#Cc1cc(C)nc(C(C)=NOCC(C)CON=C(C)c2cc(C#C)cc(C)n2)c1 (stereo not shown) [compound 873]
45 | 2.00^[a] | CCOc1cc(C)nc(C(C)=NOCC(C)(C)CON=C(C)c2cc(OCC)cc(C)n2)c1 [Compound 841]
46 | 4.14^[a] | CC(=NOCC(C)CON=C(C)c1ccc2c(n1)CCC2)c1ccc2c(n1)CCC2 (stereo not shown) [Compound 300]
47 | 7.36^[a] | CC(=NOCC(C)CON=C(C)c1cccc(C2CC2)n1)c1cccc(C2CC2)n1 (stereo not shown) [compound 815]
48 | 5.72^[a] | CC(=NOCCCCON=C(C)c1cccc(C)n1)c1ccc2ccccc2c1 [compound 445]
49 | 4.12^[a] | C=C(CON=C(Cl)c1cccc(C)n1)CON=C(Cl)c1ccc(C)c(C)n1 [compound 822]

Same assay, conditions: value marked [b]

Row | logP | SMILES
50 | 2.41^[b] | CC(=NOCC(C)(C)CON=C(C)c1cccc(C)n1)c1ccncc1 [compound 481]
51 | 5.08^[b] (isomer A) | CC(=NOC/C=C/CON=C(C)c1nc(C)c(C)s1)c1nc(C)c(C)s1 (single isomer, unassigned) [compound 766]
52 | 4.96^[b] | CC(=NOCC(C)(C)CON=C(C)c1ccc(C)c(C)n1)c1cccc(C)n1 [Compound 799]
53 | 6.81^[b] | CCC(=NOCC(C)(C)CON=C(CC)c1cccc(C)n1)c1cccc(C)n1 [compound 883]
54 | 5.51^[b] | CC(=NOCC(CON=C(C)c1cccc(C)n1)C(C)(C)C)c1cccc(C)n1 (stereo not shown) [Compound 269]
55 | 4.74^[b] | CC(=NOCCCCON=C(C)c1cc2ccccc2o1)c1cccc(C)n1 [compound 381]
56 | 1.74^[b] (isomer A) | C=C(CON=C(C)c1ccnc(C)c1)CON=C(C)c1cccc(C)n1 (single isomer, unassigned) [compound 533]
57 | 6.76^[b] | COCC#Cc1cc(C)nc(C(C)=NOCC(C)CON=C(C)c2cc(C#CCOC)cc(C)n2)c1 (stereo not shown) [compound 874]
58 | 3.99^[b] | CC(=NOCC(C)(C)CON=C(C)c1csc(C)n1)c1csc(C)n1 [compound 518]
59 | 6.65^[b] | C#Cc1cc(C)nc(C(C)=NOCC(C)CON=C(C)c2cc(C#C)cc(C)n2)c1 (stereo not shown) [compound 873]
60 | 6.16^[b] | CC(=NOCCCCON=C(C)c1cccc(CC(C)C)n1)c1cccc(C)n1 [compound 326]
61 | 2.05^[b] | C=C(CON=C(C)c1nc(C)ccc1OC)CON=C(C)c1nc(C)ccc1OC [Compound 283]
62 | 3.51^[b] | CC(=NOCCCCCCON=C(C)c1cc(C)cc(C)n1)c1cccc(C)n1 [Compound 460]
63 | 4.91^[b] | COc1ccc(C(C)=NOCCCCCCON=C(C)c2cccc(C)n2)cc1OC [compound 392]
64 | 3.15^b] | CC(=NOCCCCCCON=C(C)c1cccc(C)n1)c1cccnc1 [compound 396]
65 | 5.24^[b] | CCC(CC)(CON=C(C)c1nc(C)ccc1C)CON=C(C)c1nc(C)ccc1C [compound 812]
66 | 4.57^[b] | COc1cccc(C(C)=NOCCCCON=C(C)c2cccc(C)n2)c1 [compound 443]
67 | 5.97^[b] | CC(=NOCCCCON=C(C)c1cccc(C(C)C)n1)c1cccc(C)n1 [compound 452]
68 | 7.12^[b] | CC(=NOCCCCCCON=C(C)c1cccc(C(C)C)n1)c1cccc(C)n1 [compound 465]
69 | 4.41^[b] | C/C(=N\OCC(C)(C)CO/N=C(\C)c1cncc(C)n1)c1cccc(C)n1 [compound 492]
70 | 3.15^[b] (isomer B) | C=C(CON=C(C)c1ccccn1)CON=C(C)c1cccc(C)n1 (single isomer, unassigned) [compound 400]
71 | 2.20^[b] | CC(=NOCCCCON=C(C)c1cccc(C)n1)c1cncc(C)c1 [compound 337]
72 | 5.42^[b] | COc1ccc(C(C)=NOCC(C)(C)CON=C(C)c2cc3ccccc3o2)cc1OC [compound 415]
73 | 5.48^[b] | C=C(CON=C(C)c1ccc2ccccc2c1)CON=C(C)c1cccc(C)n1 [compound 472]
74 | 5.97^[b] | CC(=NOCCCCCCON=C(C)c1cccc(C)n1)c1ccc2c(c1)CC(C)O2 (stereo not shown) [compound 455]
75 | 4.51^[b] | CCC(=NOCC(C)(C)CON=C(C)c1cccc(C)n1)c1ncccc1C [compound 369]
76 | 7.36^[b] | CC(=NOCCCCCCON=C(C)c1cccc(CC(C)C)n1)c1cccc(C)n1 [compound 342]

Same assay, conditions: value marked [c]

Row | logP | SMILES
77 | 6.34^[c] | CC(=NOCC(C)(C)CON=C(C)c1ccc(C)c(C)n1)c1cccc(C)n1 [Compound 799]
78 | 7.36^[c] | CCC(=NOCC(C)(C)CON=C(CC)c1cccc(C)n1)c1cccc(C)n1 [compound 883]
79 | 6.87^[c] | COCC#Cc1cc(C)nc(C(C)=NOCC(C)CON=C(C)c2cc(C#CCOC)cc(C)n2)c1 (stereo not shown) [compound 874]
80 | 6.61^[c] | C#Cc1cc(C)nc(C(C)=NOCC(C)CON=C(C)c2cc(C#C)cc(C)n2)c1 (stereo not shown) [compound 873]
81 | 6.66^[c] | CCC(CC)(CON=C(C)c1nc(C)ccc1C)CON=C(C)c1nc(C)ccc1C [compound 812]
82 | 6.90^[c] | CCOc1cc(C)nc(C(C)=NOCC(C)(C)CON=C(C)c2cc(OCC)cc(C)n2)c1 [Compound 841]
